Values of other authors, collected in US20260174683A1, “CHEWABLE COMPOSITION COMPRISING A GUMMY MATRIX AND COMPRISING MELATONIN, SODIUM ALGINATE, AND CALCIUM LACTATE” (S.I.I.T. S.R.L.-SERVIZIO INTERNAZIONALE IMBALLAGGI …, priority 2022, published 2026).

SMILES | pH of 5% solution in water
CC(O)C(=O)[O-].CC(O)C(=O)[O-].[Mg+2] (centres unmarked) [Magnesium lactate, magnesium lactate] | 6.5-8.5
CC(O)C(=O)[O-].CC(O)C(=O)[O-].[Ca+2] (centres unmarked) [calcium lactate] | 6-8
